“And” between values parts separate entries of the source, which are not always exact repeats. Equal values may be shown once.
What was measured:
[1] = biological target: T1, human serum albumin (HSA) (Homo sapiens, UniProt P02768); assay: van 't Hoff thermodynamic analysis on HSA column; assay type: binding; conditions: for Δ(ΔG°) / Δ(ΔH°) / Δ(ΔS°): pH 7, 95:5 buffer:IPA, 10–30 °C
Procedure: The temperature effect was investigated at pH 7 and a 95:5 buffer:IPA eluents ratio, between 10 and 30 °C on both columns. […] The determination of thermodynamic parameters can provide valuable insights into the process of enantiodiscrimination, including its mechanistic aspects. The applied classical van ’t Hoff methodology postulates the existence of solely enantioselective interaction sites on the stationary phase. Nonetheless, it should be emphasized that a more realistic approach would encompass both enantioselective and non-enantioselective interactions. The isoenantioselective temperatures (Tiso) were calculated by dividing Δ(ΔH°) by Δ(ΔS°). At this temperature, enthalpy and entropy compensations negate each other, resulting in the coelution of the two enantiomers and no separation. The Q values (Q = Δ(ΔH°)/T × Δ(ΔS°)298K) were used for visualizing the relative contribution of enthalpic and entropic terms to the free energy of adsorption. If the Q values were smaller than 1, the enantioseparation was controlled by entropy to a higher extent.
Classical van ’t Hoff analysis was applied to determine the thermodynamic parameters. Van ’t Hoff plots were constructed by plotting the natural logarithm of the retention factor as a function of the inverse of the absolute temperature (thermodynamic temperature) over a temperature range of 10–30 °C:(5) […]
In the equation, R represents the universal gas constant, T represents the absolute temperature in Kelvin, and k represents the retention factor of the enantiomers. ΔH° stands for the standard enthalpy, while ΔS° represents the standard entropy change of transfer of the solute from the mobile phase to the stationary phase. Φ is the phase ratio of the column. If ΔH° remains constant within the selected temperature range, a linear relationship can be observed between lnk and 1/T. The slope of this relationship is −ΔH°/R, and the intercept is ΔS°/R + ln Φ. Since the value of the phase ratio is rarely known, ΔS°* values (ΔS°* = ΔS° + Rln Φ) are often used to account for the uncertainty in Φ. Similarly, the difference in the change of standard enthalpy, Δ(ΔH°), and standard entropy, Δ(ΔS°), for the two enantiomers was calculated as follows:(6) lnα=−ΔΔH°/RT+ΔΔS°/R

AGP = assay: UV titration (Benesi–Hildebrand) with AGP; assay type: binding, human; conditions: human, pH 7.4, UV titration, n = 3; 1 μM AGP, pH 7.4 phosphate buffer, 24 °C, 278 nm; read-out: logKAGP ± Stdev (logarithm of stability constant) (converted)
Procedure: The UV-Vis absorption assay is a straightforward and relatively simple method to examine the interactions between small molecules and macromolecules. Changes in the structure of the protein caused by the interacting ligand can lead to alterations in the absorption spectrum. […] Fixed wavelength measurements were conducted at the absorption maxima of AGP and HSA. […] The change in the absorbance and wavelength maximum in the UV spectra during the titration refers to the complex formation between proteins and PPIs. The Benesi–Hildebrand method was used to determine the stability constants based on Equation (7).
The absorption spectra were recorded on a Jasco V-750 spectrophotometer (Jasco, Tokyo, Japan) at 24 °C using 1.0 cm path-length quartz cuvettes. Then, 1 μM HSA and AGP were dissolved in a sodium phosphate buffer solution (pH 7.4; 0.1 M) and their concentration was kept constant. The PPIs were dissolved in DMSO, and further diluted with the AGP or HSA solution. Next, 1000 μL of 1 μM HSA and AGP solutions was titrated with the PPI stock solution in 1 μL steps. The concentration of the PPIs was set to 4.00, 7.98, 11.96, 15.94, 19.90, 23.86, 27.81, and 31.75 μM. The binding constants were determined using the Benesi–Hildebrand equation:(7) A0/A−A0=εPPI/εAPPI−εPPI+εPPI/εAPPI−εPPI×1/K×[C] where A0 is the absorbance of the HSA or AGP at 278 nm, A is the absorbance of the formed complex also at 278 nm, εPPI is the extinction coefficient of the actual PPI, εAPPI is the extinction coefficient of the albumin or AGP and PPI complex, K is the binding coefficient, and [C] is the concentration of the investigated PPI. The plot of A0/A − A0 versus C^−1 has a slope of K^−1. All experiments were performed in triplicate.

[2] = biological target: T1, human serum albumin (HSA); assay: Bound percentage by HPLC on HSA column, extrapolation to zero organic modifier; assay type: in vitro ADME; conditions: for Bound percentage (b%), average: average of IPA, EtOH, MeOH
Procedure: Chromatographic columns containing proteins can be used to determine the percentage of drug binding. A plot of the natural logarithm of the retention factors against the proportion of organic modifiers was created. […] The intercept of these linear equations can be used to calculate the bound percentage according to Equation (4) (see in Section 3.2).
Chromatographic measurements were carried out on two separate HPLC systems. The AGP binding study was performed on a Waters 2695e chromatographic system paired with a Waters 2996 PDA detector, controlled by Empower 3 FR5 (Waters Corp., Milford, MA, USA), while the HSA binding study was performed on an Agilent 1100 HPLC system, consisting of an inline degasser (G1322A), a quaternary pump (G1311A), an automatic injector (G1329A) paired with sample thermostat (G1330A), a column thermostat (G1316A), and a diode array detector (G1315A) with Agilent Chemstation B04.03-SP2 software (Agilent, Bronnwald, Germany). For the binding studies, two protein-based chiral stationary phases were utilized. The chromatographic binding study for AGP was conducted on a ChromTech Chiral-AGP column (150 mm × 4.0 mm; ChromTech Ltd., Congleton, UK), while the binding study for HSA was performed on a Daicel Chiralpak HSA column (50 mm × 4.0 mm; Daicel Corp., Osaka, Japan). The detection wavelength was 210 nm for all measurements. The stock solutions of PPIs were prepared at a concentration of 1 mg/mL in MeOH. Subsequent dilutions were prepared using water. The injected samples were mixed and diluted from the stock solutions. The final concentration for the eutomer was 0.2 mg/mL, and for the distomer, it was 0.1 mg/mL. A volume of 2 μL was injected. To mitigate the instability of PPIs in aqueous solutions, the samples were kept at a temperature of 4 °C. Cooling the samples to 4 °C prevented significant decomposition for a period of 24 h. After 24 h, new samples were prepared for injection. Chromatographic parameters were calculated based on the following equations. The retention factor (k) was calculated as:(1) k=(tr−t0)/t0 where tr is the retention time of the investigated analyte, and t0 is the dead time, determined as the first peak appearance in the chromatogram. Resolution was calculated based on the following equation:(2) Rs=2(t2−t1)/(w1+w2) where t2 and t1 are the retention times of the second and first eluted enantiomers, respectively, while w is the peak width. The separation factor (α) was calculated as follows:(3) α=k2/k1 where k1 and k2 are the retention factors of the first- and second-eluting enantiomers, respectively. The k values were also used to calculate the protein-bound percentage (b%) using Equation (4):(4) b%=k/1+k×100

[3] = difference between the two enantiomers
[4] = extrapolation to zero percent EtOH
[5] = extrapolation to zero percent IPA
[6] = extrapolation to zero percent MeOH

T1 sequence (P02768 25-609): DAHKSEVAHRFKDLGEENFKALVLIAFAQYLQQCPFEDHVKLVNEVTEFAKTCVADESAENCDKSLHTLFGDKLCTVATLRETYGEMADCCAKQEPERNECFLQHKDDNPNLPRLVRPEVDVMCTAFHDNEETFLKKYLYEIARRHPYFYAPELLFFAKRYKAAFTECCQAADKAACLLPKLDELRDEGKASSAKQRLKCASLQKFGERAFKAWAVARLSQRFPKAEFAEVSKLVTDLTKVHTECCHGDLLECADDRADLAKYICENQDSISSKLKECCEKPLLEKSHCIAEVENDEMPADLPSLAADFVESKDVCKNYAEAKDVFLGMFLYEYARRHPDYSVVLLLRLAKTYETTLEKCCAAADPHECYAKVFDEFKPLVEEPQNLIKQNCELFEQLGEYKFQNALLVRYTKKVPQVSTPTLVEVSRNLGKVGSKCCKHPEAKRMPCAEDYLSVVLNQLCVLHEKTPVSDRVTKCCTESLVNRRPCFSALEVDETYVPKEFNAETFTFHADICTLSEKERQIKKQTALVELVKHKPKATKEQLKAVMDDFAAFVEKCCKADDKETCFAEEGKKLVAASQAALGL

Q ([1]; Q = Δ(ΔH°)/T × Δ(ΔS°)298K)	Δ(ΔG°) [1, 3]	Δ(ΔH°) [1, 3]	Δ(ΔS°) [1, 3]	Tiso isoenantioselective temperature ([1]; Δ(ΔH°)/Δ(ΔS°))	SMILES	Kd (AGP)	Bound percentage (b%), average [2]	Bound percentage (b%) [2, 4]	Bound percentage (b%) [2, 5]	Bound percentage (b%) [2, 6]	Δ(ΔG°) ([1]; single enantiomer)	Δ(ΔH°) ([1]; single enantiomer)	Δ(ΔS°) ([1]; single enantiomer)
1.4	-0.17 kcal/mol	-0.669 kcal/mol	−7.2 J/molK	128.9 °C	Cc1c(OCC(F)(F)F)ccnc1C[S+]([O-])c1nc2ccccc2[nH]1 (stereo not drawn) [Lansoprazole, lansoprazole]								
					Cc1c(OCC(F)(F)F)ccnc1C[S@@+]([O-])c1nc2ccccc2[nH]1 [R-lansoprazole, dexlansoprazole]	27.5 µM	92.45% and 92.45 ± 0.59%	92.69%	91.77%	92.89%	-1.39 kcal/mol	-2.01 kcal/mol	−8.7 J/molK
					Cc1c(OCC(F)(F)F)ccnc1C[S@+]([O-])c1nc2ccccc2[nH]1 [S-lansoprazole]	14.8 µM	94.64% and 94.64 ± 0.89%	94.85%	93.67%	95.42%	-1.58 kcal/mol	-2.68 kcal/mol	−15.9 J/molK
